The kinase profiling compilation of Christmann-Franck et al. (2016)

Columns and labels:
Assay in all cases: radiometric filter-binding kinase assay
[1] = target: AURKA (human) (UniProt O14965)
[2] = target: AURKB (human) (UniProt Q96GD4)
[3] = target: BRSK1 (human) (UniProt Q8TDC3)
[4] = target: BTK (human) (UniProt Q06187)
[5] = target: CDK2 CCNA2 (human) (UniProt P20248+P24941)
[6] = target: CHEK1 (human) (UniProt O14757)
[7] = target: CSNK2A1 (human) (UniProt P68400)
[8] = target: DYRK2 (human) (UniProt Q92630)
[9] = target: EEF2K (human) (UniProt O00418)
[10] = target: EPHA2 (human) (UniProt P29317)
[11] = target: ERBB4 (human) (UniProt Q15303)
[12] = target: FGFR1 (human) (UniProt P11362)
[13] = target: FLT1 (human) (UniProt P17948)
[14] = target: GCK (human) (UniProt Q12851)
[15] = target: INSRR (human) (UniProt P14616)
[16] = target: MAP2K2 (human) (UniProt P36507)
[17] = target: MAP2K6 (human) (UniProt P52564)
[18] = target: MAPK10 (human) (UniProt P53779)
[19] = target: MAPK12 (human) (UniProt P53778)
[20] = target: MAPK15 (human) (UniProt Q8TD08)
[21] = target: MAPKAPK3 (human) (UniProt Q16644)
[22] = target: MAPKAPK5 (human) (UniProt Q8IW41)
[23] = target: MELK (human) (UniProt Q14680)
[24] = target: MINK1 (human) (UniProt Q8N4C8)
[25] = target: MST4 (human) (UniProt Q9P289)
[26] = test system: PAK2 (human), Q13177 [T402E]
[27] = target: PHKG1 (human) (UniProt Q16816)
[28] = target: PIM2 (human) (UniProt Q9P1W9)
[29] = target: PIM3 (human) (UniProt Q86V86)
[30] = target: PRKACA (human) (UniProt P17612)
[31] = target: PRKCA (human) (UniProt P17252)
[32] = target: RIPK2 (human) (UniProt O43353)
[33] = target: RPS6KA3 KD1 KD2 (human) (UniProt P51812)
[34] = test system: SGK1 (human), O00141 [S422D]
[35] = target: SRPK1 (human) (UniProt Q96SB4)
[36] = target: TAOK1 (human) (UniProt Q7L7X3)

MAPK12 (human), sequence (P53778 whole entry, looked up): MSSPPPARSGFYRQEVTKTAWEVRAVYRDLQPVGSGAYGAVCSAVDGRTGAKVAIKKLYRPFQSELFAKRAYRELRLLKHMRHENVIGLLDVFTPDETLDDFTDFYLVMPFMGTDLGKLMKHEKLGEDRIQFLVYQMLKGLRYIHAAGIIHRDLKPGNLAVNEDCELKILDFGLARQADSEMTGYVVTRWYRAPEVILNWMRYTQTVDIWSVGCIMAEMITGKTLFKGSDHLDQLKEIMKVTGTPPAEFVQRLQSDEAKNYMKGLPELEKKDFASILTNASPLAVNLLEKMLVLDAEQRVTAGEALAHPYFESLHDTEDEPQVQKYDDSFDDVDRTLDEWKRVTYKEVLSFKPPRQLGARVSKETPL
PIM2 (human), sequence (Q9P1W9 whole entry, looked up): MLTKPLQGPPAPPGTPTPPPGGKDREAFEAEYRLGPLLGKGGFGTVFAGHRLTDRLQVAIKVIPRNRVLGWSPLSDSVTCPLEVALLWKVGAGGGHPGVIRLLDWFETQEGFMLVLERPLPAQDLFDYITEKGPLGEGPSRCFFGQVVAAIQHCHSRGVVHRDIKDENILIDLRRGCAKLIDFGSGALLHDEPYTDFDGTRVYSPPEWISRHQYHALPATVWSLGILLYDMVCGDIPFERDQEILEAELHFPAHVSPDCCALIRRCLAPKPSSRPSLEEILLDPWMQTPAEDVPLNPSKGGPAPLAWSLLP
EPHA2 (human), sequence (P29317 whole entry, looked up): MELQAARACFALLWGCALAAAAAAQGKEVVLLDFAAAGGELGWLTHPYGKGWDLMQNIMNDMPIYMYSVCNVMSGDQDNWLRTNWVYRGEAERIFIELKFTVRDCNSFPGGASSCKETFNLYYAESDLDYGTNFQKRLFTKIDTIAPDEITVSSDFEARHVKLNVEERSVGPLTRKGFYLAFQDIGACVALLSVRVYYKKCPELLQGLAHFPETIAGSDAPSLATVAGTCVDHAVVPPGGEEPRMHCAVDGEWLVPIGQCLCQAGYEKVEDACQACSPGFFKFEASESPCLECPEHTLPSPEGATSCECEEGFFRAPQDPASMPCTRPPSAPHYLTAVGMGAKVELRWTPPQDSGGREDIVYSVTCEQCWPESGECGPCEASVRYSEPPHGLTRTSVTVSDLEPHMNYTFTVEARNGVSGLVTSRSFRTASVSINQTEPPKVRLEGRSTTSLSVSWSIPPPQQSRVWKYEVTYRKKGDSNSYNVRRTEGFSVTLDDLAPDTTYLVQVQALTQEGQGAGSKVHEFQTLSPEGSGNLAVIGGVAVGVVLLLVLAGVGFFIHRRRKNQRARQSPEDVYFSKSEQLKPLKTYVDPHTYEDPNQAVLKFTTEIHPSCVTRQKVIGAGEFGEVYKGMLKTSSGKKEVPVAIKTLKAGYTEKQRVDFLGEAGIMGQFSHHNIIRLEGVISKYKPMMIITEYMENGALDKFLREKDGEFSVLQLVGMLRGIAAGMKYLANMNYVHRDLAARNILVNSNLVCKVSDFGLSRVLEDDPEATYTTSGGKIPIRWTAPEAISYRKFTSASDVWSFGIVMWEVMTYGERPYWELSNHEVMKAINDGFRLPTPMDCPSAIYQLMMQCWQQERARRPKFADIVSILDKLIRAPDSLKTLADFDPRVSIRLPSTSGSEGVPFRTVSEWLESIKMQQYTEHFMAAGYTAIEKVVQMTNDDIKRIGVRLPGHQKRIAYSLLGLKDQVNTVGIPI
SRPK1 (human), sequence (Q96SB4 whole entry, looked up): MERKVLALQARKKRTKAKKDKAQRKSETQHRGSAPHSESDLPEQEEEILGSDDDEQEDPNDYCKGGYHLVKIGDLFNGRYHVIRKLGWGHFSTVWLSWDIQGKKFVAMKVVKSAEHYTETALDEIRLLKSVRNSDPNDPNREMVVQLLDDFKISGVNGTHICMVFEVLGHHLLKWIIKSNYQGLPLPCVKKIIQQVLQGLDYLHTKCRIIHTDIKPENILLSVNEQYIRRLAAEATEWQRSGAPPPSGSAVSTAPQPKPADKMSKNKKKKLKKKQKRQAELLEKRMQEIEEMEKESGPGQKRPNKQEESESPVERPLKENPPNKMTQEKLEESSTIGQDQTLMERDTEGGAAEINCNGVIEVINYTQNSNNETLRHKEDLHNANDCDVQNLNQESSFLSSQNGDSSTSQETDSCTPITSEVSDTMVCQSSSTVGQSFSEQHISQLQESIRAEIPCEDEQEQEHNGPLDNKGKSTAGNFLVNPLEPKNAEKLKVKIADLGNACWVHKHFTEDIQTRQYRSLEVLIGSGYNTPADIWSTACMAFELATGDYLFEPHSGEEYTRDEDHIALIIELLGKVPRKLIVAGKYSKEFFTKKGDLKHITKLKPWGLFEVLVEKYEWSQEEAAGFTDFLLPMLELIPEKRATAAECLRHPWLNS
DYRK2 (human), sequence (Q92630 whole entry, looked up): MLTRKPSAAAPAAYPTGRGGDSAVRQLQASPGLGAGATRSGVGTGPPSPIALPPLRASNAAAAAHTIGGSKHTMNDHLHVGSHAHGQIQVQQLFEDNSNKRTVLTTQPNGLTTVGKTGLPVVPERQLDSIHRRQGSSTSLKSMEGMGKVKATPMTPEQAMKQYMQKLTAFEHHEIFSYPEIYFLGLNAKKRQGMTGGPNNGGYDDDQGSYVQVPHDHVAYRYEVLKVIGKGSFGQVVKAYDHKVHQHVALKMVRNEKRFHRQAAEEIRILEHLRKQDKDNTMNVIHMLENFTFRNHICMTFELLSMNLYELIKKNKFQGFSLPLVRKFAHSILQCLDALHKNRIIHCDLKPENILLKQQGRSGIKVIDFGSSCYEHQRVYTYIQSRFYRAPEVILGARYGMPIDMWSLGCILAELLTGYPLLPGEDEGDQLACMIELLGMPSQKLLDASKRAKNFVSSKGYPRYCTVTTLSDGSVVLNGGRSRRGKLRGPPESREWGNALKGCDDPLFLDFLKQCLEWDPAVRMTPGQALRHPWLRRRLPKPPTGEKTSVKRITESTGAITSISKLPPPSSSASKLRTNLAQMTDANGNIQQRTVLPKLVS
EEF2K (human), sequence (O00418 whole entry, looked up): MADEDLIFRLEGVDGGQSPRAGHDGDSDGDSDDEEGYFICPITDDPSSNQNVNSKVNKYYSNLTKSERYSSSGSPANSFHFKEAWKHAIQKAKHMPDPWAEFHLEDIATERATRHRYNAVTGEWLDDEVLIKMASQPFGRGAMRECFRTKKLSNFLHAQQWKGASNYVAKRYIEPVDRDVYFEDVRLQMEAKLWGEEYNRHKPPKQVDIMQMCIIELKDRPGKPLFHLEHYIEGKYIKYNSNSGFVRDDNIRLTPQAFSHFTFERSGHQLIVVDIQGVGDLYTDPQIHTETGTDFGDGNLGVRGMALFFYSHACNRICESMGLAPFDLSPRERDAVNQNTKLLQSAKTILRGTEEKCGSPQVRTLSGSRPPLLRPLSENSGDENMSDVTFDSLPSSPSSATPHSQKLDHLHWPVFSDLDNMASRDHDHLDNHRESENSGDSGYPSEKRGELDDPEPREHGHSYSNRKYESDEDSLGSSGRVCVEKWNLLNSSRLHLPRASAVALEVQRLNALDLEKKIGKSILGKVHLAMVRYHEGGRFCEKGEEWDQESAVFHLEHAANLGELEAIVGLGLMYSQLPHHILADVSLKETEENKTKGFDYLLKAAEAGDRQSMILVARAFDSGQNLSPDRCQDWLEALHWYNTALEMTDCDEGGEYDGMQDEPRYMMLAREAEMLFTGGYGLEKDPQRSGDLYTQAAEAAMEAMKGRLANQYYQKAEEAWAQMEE
AURKB (human), sequence (Q96GD4 whole entry, looked up): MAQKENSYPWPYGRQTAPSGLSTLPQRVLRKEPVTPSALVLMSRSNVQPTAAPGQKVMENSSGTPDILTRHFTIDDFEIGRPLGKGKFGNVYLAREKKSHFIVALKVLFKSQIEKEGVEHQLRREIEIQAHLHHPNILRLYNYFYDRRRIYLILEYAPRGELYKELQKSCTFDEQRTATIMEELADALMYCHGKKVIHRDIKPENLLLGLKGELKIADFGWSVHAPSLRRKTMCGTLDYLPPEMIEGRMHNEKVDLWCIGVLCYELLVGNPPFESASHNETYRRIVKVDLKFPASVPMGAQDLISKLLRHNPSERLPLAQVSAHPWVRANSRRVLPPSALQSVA
MAPKAPK3 (human), sequence (Q16644 whole entry, looked up): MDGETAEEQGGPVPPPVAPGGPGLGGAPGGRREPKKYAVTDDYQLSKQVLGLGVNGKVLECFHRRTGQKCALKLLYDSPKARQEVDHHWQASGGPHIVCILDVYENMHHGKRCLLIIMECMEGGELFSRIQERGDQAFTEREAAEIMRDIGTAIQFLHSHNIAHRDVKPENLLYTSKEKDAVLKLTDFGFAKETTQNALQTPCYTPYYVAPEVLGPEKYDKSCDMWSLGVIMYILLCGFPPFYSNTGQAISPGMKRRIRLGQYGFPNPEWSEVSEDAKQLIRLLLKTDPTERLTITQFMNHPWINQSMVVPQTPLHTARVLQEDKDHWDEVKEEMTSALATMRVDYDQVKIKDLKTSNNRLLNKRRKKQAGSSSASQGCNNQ

residual activity ([1]; compound 10.0 µM): 93%
residual activity ([1]; compound 100.0 µM): 64%
residual activity ([2]; compound 10.0 µM): 53%
residual activity ([2]; compound 50.0 µM): 25%
residual activity ([2]; compound 100.0 µM): 22%
residual activity ([3]; compound 10.0 µM): 76%
residual activity ([3]; compound 100.0 µM): 51%
residual activity ([4]; compound 10.0 µM): 52%
residual activity ([4]; compound 100.0 µM): 10%
residual activity ([5]; compound 10.0 µM): 100%
residual activity ([5]; compound 50.0 µM): 84%
residual activity ([5]; compound 100.0 µM): 121%
residual activity ([6]; compound 10.0 µM): 69%
residual activity ([6]; compound 50.0 µM): 98%
residual activity ([6]; compound 100.0 µM): 43%
residual activity ([7]; compound 10.0 µM): 110%
residual activity ([7]; compound 50.0 µM): 95%
residual activity ([7]; compound 100.0 µM): 86%
residual activity ([8]; compound 10.0 µM): 63%
residual activity ([8]; compound 50.0 µM): 84%
residual activity ([8]; compound 100.0 µM): 33%
residual activity ([9]; compound 10.0 µM): 89%
residual activity ([9]; compound 50.0 µM): 73%
residual activity ([9]; compound 100.0 µM): 64%
residual activity ([10]; compound 10.0 µM): 82%
residual activity ([10]; compound 50.0 µM): 64%
residual activity ([10]; compound 100.0 µM): 40%
residual activity ([11]; compound 10.0 µM): 33%
residual activity ([11]; compound 100.0 µM): 8%
residual activity ([12]; compound 10.0 µM): 109%
residual activity ([12]; compound 50.0 µM): 95%
residual activity ([12]; compound 100.0 µM): 50%
residual activity ([13]; compound 10.0 µM): 65%
residual activity ([13]; compound 100.0 µM): 11%
residual activity ([14]; compound 10.0 µM): 76%
residual activity ([14]; compound 100.0 µM): 14%
residual activity ([15]; compound 10.0 µM): 88%
residual activity ([15]; compound 50.0 µM): 90%
residual activity ([15]; compound 100.0 µM): 51%
residual activity ([16]; compound 10.0 µM): 74%
residual activity ([16]; compound 100.0 µM): 19%
residual activity ([17]; compound 10.0 µM): 85%
residual activity ([17]; compound 100.0 µM): 84%
residual activity ([18]; compound 10.0 µM): 75%
residual activity ([18]; compound 50.0 µM): 70%
residual activity ([18]; compound 100.0 µM): 62%
residual activity ([19]; compound 10.0 µM): 95%
residual activity ([19]; compound 50.0 µM): 80%
residual activity ([19]; compound 100.0 µM): 83%
residual activity ([21]; compound 10.0 µM): 57%
residual activity ([21]; compound 50.0 µM): 48%
residual activity ([21]; compound 100.0 µM): 8%
residual activity ([22]; compound 10.0 µM): 52%
residual activity ([22]; compound 50.0 µM): 25%
residual activity ([22]; compound 100.0 µM): 15%
residual activity ([23]; compound 10.0 µM): 46%
residual activity ([23]; compound 50.0 µM): 64%
residual activity ([23]; compound 100.0 µM): 21%
residual activity ([24]; compound 10.0 µM): 65%
residual activity ([24]; compound 100.0 µM): 5%
residual activity ([25]; compound 10.0 µM): 74%
residual activity ([25]; compound 50.0 µM): 57%
residual activity ([25]; compound 100.0 µM): 14%
residual activity ([26]; compound 10.0 µM): 94%
residual activity ([26]; compound 100.0 µM): 63%
residual activity ([27]; compound 10.0 µM): 96%
residual activity ([27]; compound 50.0 µM): 65%
residual activity ([27]; compound 100.0 µM): 73%
residual activity ([28]; compound 10.0 µM): 71%
residual activity ([28]; compound 50.0 µM): 17%
residual activity ([28]; compound 100.0 µM): 18%
residual activity ([29]; compound 10.0 µM): 18%
residual activity ([29]; compound 50.0 µM): 5%
residual activity ([29]; compound 100.0 µM): 7%
residual activity ([30]; compound 10.0 µM): 89%
residual activity ([30]; compound 50.0 µM): 41%
residual activity ([30]; compound 100.0 µM): 95%
residual activity ([31]; compound 10.0 µM): 94%
residual activity ([31]; compound 50.0 µM): 60%
residual activity ([31]; compound 100.0 µM): 90%
residual activity ([32]; compound 10.0 µM): 110%
residual activity ([32]; compound 100.0 µM): 139%
residual activity ([33]; compound 10.0 µM): 74%
residual activity ([33]; compound 50.0 µM): 27%
residual activity ([33]; compound 100.0 µM): 13%
residual activity ([34]; compound 10.0 µM): 103%
residual activity ([34]; compound 50.0 µM): 54%
residual activity ([34]; compound 100.0 µM): 48%
residual activity ([35]; compound 10.0 µM): 107%
residual activity ([35]; compound 50.0 µM): 42%
residual activity ([35]; compound 100.0 µM): 35%
residual activity ([36]; compound 10.0 µM): 83%
residual activity ([36]; compound 100.0 µM): 18%
SMILES: N#Cc1c(O)c2c(-c3ccc(-c4ccccc4O)cc3)csc2[nH]c1=O
residual activity ([20]; compound 10.0 µM): 81%
residual activity ([20]; compound 50.0 µM): 36%
residual activity ([20]; compound 100.0 µM): 24%
